# In patent US20260137662A1, “CD11B AGONISTS FOR TREATMENT OF AUTOIMMUNE DISEASE” (Rush University Medical Center, priority 2022, published 2026):
# Entries after “also recorded” stand apart in the source; their conditions may differ.
# Experiments:
# [1] = tested on: BMDMs from C57BL/6 wild type mice (WT); experiment: Biomarker secretion from IMQ-treated bone marrow derived macrophages of wild type mice; format: cell-based; conditions: WT cells, IMQ (20 ug/mL) and LA1 (20 uM) co-treatment, 4 hours
# Procedure: FIG. 7A illustrates levels of biomarker IL-6 secretion in bone marrow derived macrophages (BMDMs) from C57BL/6 wild type (WT) mice, mice with global deletion of CD11b (KO), or C57BL/6 mice expressing CD11b with a point mutation (KI), the macrophages treated for 4 hours with vehicle DMSO (UT), LA1 (20 uM), IMQ (20 ug/mL), or IMQ and LA1 co-treatment. Bars show mean with SD (N=3) (*P<0.05, **P<0.01, ***P<0.001, ****P<0.0001).
# FIG. 7B illustrates levels of biomarker IL-1b secretion in bone marrow derived macrophages (BMDMs) from C57BL/6 wild type (WT) mice, mice with global deletion of CD11b (KO), or C57BL/6 mice expressing CD11b with a point mutation (KI), the macrophages treated for 4 hours with vehicle DMSO (UT), LA1 (20 uM), IMQ (20 ug/mL), or IMQ and LA1 co-treatment. Bars show mean with SD (N=3) (*P<0.05, **P<0.01, ***P<0.001, ****P<0.0001).
# FIG. 7C illustrates levels of biomarker suPAR secretion in bone marrow derived macrophages (BMDMs) from C57BL/6 wild type (WT) mice, mice with global deletion of CD11b (KO), or C57BL/6 mice expressing CD11b with a point mutation (KI), the macrophages treated for 4 hours with vehicle DMSO (UT), LA1 (20 uM), IMQ (20 ug/mL), or IMQ and LA1 co-treatment. Bars show mean with SD (N=3) (*P<0.05, **P<0.01, ***P<0.001, ****P<0.0001).
# FIG. 7D illustrates levels of biomarker IFNb secretion in bone marrow derived macrophages (BMDMs) from C57BL/6 wild type (WT) mice, mice with global deletion of CD11b (KO), or C57BL/6 mice expressing CD11b with a point mutation (KI), the macrophages treated for 4 hours with vehicle DMSO (UT), LA1 (20 uM), IMQ (20 ug/mL), or IMQ and LA1 co-treatment. Bars show mean with SD (N=3) (*P<0.05, **P<0.01, ***P<0.001, ****P<0.0001).
# Bone marrow derived macrophages (BMDMs) from C57BL/6 wild type mice (WT), mice with global deletion of CD11b (KO), and C57BL/6 mice expressing CD11b with a point mutation (KI), as described previously (Martinez et al., 2020) were used to evaluate the effect of pharmacologic activation of CD11b by LA1 or genetic activation of CD11b on TLR-pathway dependent biomarkers. BMDMs from WT, KO, and KI mice were left untreated, treated with LA1, treated with IMQ, or co-treated with LA1 and IMQ and levels of biomarkers IL-1b, suPAR, IL-6 and IFN-b were measured 4 hours after treatment.
# [2] = tested on: humanized mouse model of SLE (SLE-NSG mice); experiment: Humanized SLE mouse model (NSG mice engrafted with SLE patient PBMCs); format: in vivo
# Procedure: NSG mice engrafted with healthy control or SLE PBMCs were subsequently treated with LA1 or vehicle and human dsDNA levels were measured after 4 weeks of treatment. Each dot represents a unique sample. Bars show mean +/−SEM (n=3-6).
# NSG mice engrafted with healthy control or SLE PBMCs were subsequently treated with LA1 or vehicle and suPAR levels were measured after 4 weeks of treatment. Each dot represents a unique sample. Bars show mean +/−SEM (n=3-6). […]
# NSG mice engrafted with healthy control or SLE PBMCs were subsequently treated with LA1 or vehicle and ACR was measured after 4 weeks of treatment. Each dot represents a unique sample. Bars show mean +/−SEM (n=3-6).
# FIG. 14A illustrates alopecia in control mouse models (Ctrl), mice engrafted with heathy PBMCs (HC), humanized SLE models treated with vehicle (Veh), and humanized SLE models treated with LA1. […]
# The efficacy of CD11b agonist LA1 as a therapeutic was studied using a generated humanized mouse model of SLE. To generate the humanized SLE model, immunocompromised NSG mice engrafted with peripheral blood mononuclear cells (PBMCs) from either SLE patients or from healthy human donors (control). 2.5×10^6 purified PBMCs were injected intravenously into NSG mice on day 0. The humanized mice were monitored daily for significant clinical signs of SLE (alopecia, skin lesions, weight loss & arthritis), morbidity and mortality. Body weights were recorded weekly and skin lesions were photographed and scored weekly.
# A small sample of peripheral blood was drawn from the mice under general anesthesia 2, 4 and 6 wks post-humanization by penetrating the retro-orbital sinus in mice with a sterile Pasteur pipette. The blood sample was split for fluorescence-activated cell sorting (FACS) analysis and serum preparation. […] For serum, the whole blood was clotted at room temperature for 30 minutes, followed by a 10-minute centrifugation at 10,000 RPM. The red blood cell-free serum was transferred into micro-centrifuge tubes and stored at −80° C. until further analysis. Additionally, urine samples were collected weekly, transferred into a micro-centrifuge tube and stored at −80° for future analysis. Urine protein was measured using a sandwich ELISA specific for mouse albumin (Bethyl Laboratories, TX) and urinary creatinine was determined using the Creatinine Companion kit (Exocell, PA) according to manufacturer's protocol.
# To test the efficacy of LA1 on humanized SLE mouse models, the generated SLE-NSG mice were treated with LA1 (2 mg/kg i.p. daily) starting at two weeks post administration of PBMCs and until experiment completion. Concentrations of human dsDNA, mouse suPAR, and IFNb were measured in NSG mice, NSG mice engrafted with PBMCs from a healthy donor, untreated SLE-NSG mice, SLE-NSG mice treated with a vehicle, and SLE-NSG mice treated with LA1.
# MRL/lpr mice = experiment: MRL/lpr mouse model of lupus and LN: alopecia and skin lesions; format: in vivo; conditions: for alopecia (nose area): Mrl/lpr mice
# Excerpt: FIG. 13B illustrates percentage of skin effected by alopecia on the nose area of untreated mice (Ctrl), mice treated with a vehicle (Veh), and mice treated with LA1 (LA1). […] Bars show mean +/−SEM (n=5).
# FIG. 13C illustrates lesion size (mm) in untreated mice (Ctrl), mice treated with a vehicle (Veh), and mice treated with LA1 (LA1). […] Bars show mean +/−SEM (n=5).
# To evaluate the efficacy of LA1 as a treatment for LN, MRL/ipr mouse models were used. MRL/lpr mice develop high circulating levels of IFN-I, systemic inflammation and multi-organ pathology, including skin, vascular, and kidney damage, and LN. Thus, this genetic mouse model mimics several features of human lupus and LN.
# [3] = LA1 2 mg/kg i.p. daily from two weeks post PBMCs, after 4 weeks of treatment, vs vehicle, 2 mg/kg
# [4] = humanized SLE mice treated with LA1 vs vehicle
smiles,measurement,setting,value
"O=C(O)c1ccc(-c2ccc(/C=C3\SC(=S)N(Cc4ccccc4)C3=O)o2)cc1 [LA1, (Z)-4-(5-((3-benzyl-4-oxo-2-thioxothiazolidin-5-ylidene)methyl)furan-2-yl)benzoic acid]",level of IFN-b in cell supernatant,[1],significantly suppressed
same,level of IL-1b in cell supernatant,[1],significantly suppressed
same,level of IL-6 in cell supernatant,[1],significantly suppressed
same,level of suPAR in cell supernatant,[1],significantly suppressed
same,concentration of IFNb in the serum,[2]; [3],significantly reduced; also recorded: reduction
same,concentration of anti-double stranded DNA antibodies (human dsDNA) in the serum,[2]; [3],significantly reduced; also recorded: reduction
same,concentration of suPAR in the serum,[2]; [3],significantly reduced; also recorded: reduction
same,urinary albumin creatinine ratios (ACR),[2]; [3],significantly reduced; also recorded: reduction
same,alopecia (nose area),[2]; [4],significantly reduced; also recorded: reduces alopecia
same,"number of GR1-positive, CD11b-positive cells in spleens",[2]; [4],reduction in number
same,number of neutrophils infiltrating in the kidney (H&E staining),[2]; [4],reduction in number
same,skin lesions,"MRL/lpr mice; Mrl/lpr mice treated with LA1, co-treatment and delayed treatment",reduces clinical symptoms
same,alopecia (nose area),MRL/lpr mice; LA1 as co-treatment,reduction in alopecia
same,alopecia (nose area),MRL/lpr mice; LA1 treatment after 2-weeks of disease onset,reduction in alopecia
